The values below come from patent US8158647B2, “Substituted pyrrolopyridines and pyrazolopyridines as kinase modulators” (SGX Pharmaceuticals, Inc., priority 2007, dated 2012).

One test has as its target T1, ABL T315I BAF3 cells (Homo sapiens, UniProt P00519, T315I, cells depend on it).
T1 construct: ABL T315I BAF3; fused on or other part: P11274 (Breakpoint cluster region protein)
As to the kind of experiment: 96-well XTT cell survival assay, BaF3 ABL T315I. In kind it is cell-based. To be noted: 72 hours, read-out: CELL BIO ABL T315I BAF3 XTT (IC50). The method, then:
(§1) MV4-11 and THP cells were maintained in Iscove's Modified Dulbecco's Medium supplemented with 10% fetal bovine serum (FBS) and penicillin/streptomycin, Ba/F3 cells were maintained in RPMI 1640 supplemented with 10% FBS, penicillin/streptomycin and 5 ng/ml recombinant mouse IL-3.
(§2) Compounds were tested in the following assays in duplicate.
(§3) 96-well XTT assay: Cells (e.g. BaF3 315I, M3511, or E255K cells) were grown in growth media containing various concentrations of compounds (duplicates) on a 96-well plate for 72 hours at 37° C. The starting cell number was 5000-8000 cells per well and volume was 120 μl. At the end of the 72-hour incubation, 40 μl of XTT labeling mixture (50:1 solution of sodium 3′-[1-(phenylamino-carbonyl)-3,4-tetrazolium]-bis(4-methoxy-6-nitro) benzene sulfonic acid hydrate and Electron-coupling reagent: PMS (N-methyl dibenzopyrazine methyl sulfate) were added to each well of the plate. After an additional 2-6 hours of incubation at 37° C., the absorbance reading at 405 nm with background correction at 650 nm was measured with a spectrophotometer.
A general note: Tetrazolium dyes change colour on reduction, which living cells bring about.

The target in the next test is T2, ABL P210WT BAF3 cells (Homo sapiens, UniProt P00519).
T2 construct: ABL P210WT BAF3; fused on or other part: P11274 (Breakpoint cluster region protein)
As to the kind of experiment: 96-well XTT cell survival assay, BaF3 ABL P210WT. The test is classed as cell-based. The conditions noted are these: ABL P210 WT, 72 hours, read-out: CELL BIO ABL P210WT BAF3 XTT (IC50). The method, then:
as §1, §2, §3

Test [1] concerns the target T3, purified and unphosphorylated T315I Abl kinase domain (ABL_T315I_0P) (Mus musculus, UniProt P00520, T315I).
T3 construct: The c-Abl T3151 KD (kinase domain) was purified as follows; Met-Ser-Leu (vector-derived residues) (N); made in house; host or cells: E. coli BL21(DE3) strains (Codon+RIL, or pSA0145 for the lambda phosphatase co-expression plasmid)
T3 sequence (P00520 242-493 T315I limits assumed): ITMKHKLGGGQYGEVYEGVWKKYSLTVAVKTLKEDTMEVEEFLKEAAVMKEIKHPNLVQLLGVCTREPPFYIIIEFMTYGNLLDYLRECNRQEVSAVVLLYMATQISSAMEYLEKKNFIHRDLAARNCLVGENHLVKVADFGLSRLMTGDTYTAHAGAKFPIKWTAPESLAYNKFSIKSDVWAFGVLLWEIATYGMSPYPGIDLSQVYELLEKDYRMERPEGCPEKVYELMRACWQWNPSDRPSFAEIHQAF
As to the kind of experiment: c-Abl T315I (unphosphorylated kinase domain) pyruvate kinase/lactate dehydrogenase coupled enzyme assay. The test is classed as biochemical. The conditions noted are these: 10 μM ATP. The text has this:
Although the first of these examples uses the kinase domain of a mutant form of Abl T315I (“Abl T315I KD”), the kinase assays may use various forms of mutant and wild type enzymes, including, for example, the entire protein, the kinase domain, or a portion thereof (e.g. Abl Y393F). The kinases used in the assays may also be of varying phosphorylation states. In the c-Abl example, a mutant kinase at a zero phosphorylation state was used.
c-Abl Pyruvate Kinase/Lactate Dehydrogenase Coupled Enzyme Assay
In the c-Abl Pyruvate Kinase (PK)/Lactate Dehydrogenase (LDH) Coupled Assay the protein kinase dependant phosphorylation of a substrate peptide was coupled to the oxidation of NADH. The oxidation of NADH to NAD+ was detected by monitoring a decrease in absorbance at 340 nm.
Materials: Abl substrate peptide=EAIYAAPFAKKK-OH (SEQ ID NO: 1) (Biopeptide, San Diego, Calif.); […]NADH (Sigma Cat#N-8129, FW=709.4); 2M MgCl2; 1M HEPES buffer, pH 7.5; Phosphoenolpyruvate (PEP) (Sigma Cat#P-7002, FW=234); Lactate dehydrogenase (LDH) (Worthington Biochemical Cat#2756); Pyruvate Kinase (PK) (Sigma Cat#P-9136); ATP (Sigma Cat#A-3377, FW=551); Greiner 384-well UV star plate; and purified and unphosphorylated T3151 Abl kinase domain.
Stock Solutions: 10 mM NADH (7.09 mg/ml in miliQH2O) made fresh daily; 10 mM Abl substrate peptide (13.4 mg/ml in miliQH2O) stored at −20° C.; 100 mM HEPES buffer, pH 7.5 (5 ml 1M stock+45 ml miliQH2O); 100mM MgCl2 (5 ml 2M MgCl2+95 ml dH2O); 100 mM PEP (23.4 mg/ml in dH2O) stored at −20° C.; 10mM ATP (5.51 mg/ml in dH2O) stored at −20° C. (diluted 50 μl into total of 10 ml miliQH2O daily=50 μM ATP working stock); 1000 U/ml PK (U/mg varies with lot) flash-frozen under liquid N2 and stored at −80° C.; and 1000 U/ml LDH (U/mg varies with lot) flash-frozen under liquid N2 and stored at −80° C.
Standard Assay Setup for 384-well format (50 μl reaction): 300 μM NADH; 10 mM MgCl2; 2 mM PEP; 45 U/ml PK; 60 U/ml LDH; 200 μM Abl substrate peptide; 2.5 μl test compound (in DMSO); 2 μg/ml Abl kinase domain; 10 μM ATP; 100 mM HEPES buffer. Positive controls contained DMSO with no test compound. Negative controls contained 5 μl of 0.5M EDTA (50 mM in the assay). The dephosphorylated form of the c-Abl T315I mutant was used in the biochemical screening assays. The kinase reaction was initiated at time t=0 by the addition of ATP.
Activity was measured by following the time-dependent loss of NADH by absorbance spectroscopy at 340 nm. The linear portion of the resulting progress curve was then analyzed by linear regression to get the activity in absorbance units/time, reported as the slope of that best fit line (moles/unit time can be calculated from using molar extinction coefficient for NADH at 340 nm, 6250M^−1 cm^−1).
Screening data was evaluated using the equation: Z′=1-[3*(σ++σ−)/|μ+−μ−|] (Zhang, et al., 1999 J Biomol Screening 4(2) 67-73), where μ denotes the mean and σ the standard deviation. The subscript designates positive or negative controls. The Z′ score for a robust screening assay should be ≧0.50. The typical threshold=μ+−3*σ+−. Any value that falls below the threshold was designated a “hit”.
Dose response was analyzed using the equation: y=min+{(max−min)/(1+10^[compound]−logIC50)}, where y is the observed initial slope, max=the slope in the absence of inhibitor, min=the slope at infinite inhibitor, and the IC50 is the [compound] that corresponds to ½ the total observed amplitude (Amplitude=max−min).
To measure modulation, activation, or inhibition of Abl KD, a test compound was added to the assay at a range of concentrations. Inhibitors may inhibit Abl KD activity at an IC50 in the micromolar range, the nanomolar range, or, for example, in the subnanomolar range.
An open-reading frame for c-Abl was amplified from a Mus musculus (mouse) cDNA library prepared from freshly harvested mouse liver using a commercially available kit (Invitrogen) by PCR using the following primers: […]
The c-Abl T3151 KD (kinase domain) was purified as follows. […]

In the case of `CN(C)C(=O)c1cc(-c2cnc3[nH]cc(-c4cccc(F)c4F)c3c2Cl)cnc1N` [2-Amino-5-[4-chloro-3-(2,3-difluoro-phenyl)-1H-pyrrolo[2,3-b]pyridin-5-yl]-N,N-dimethyl-nicotinamide], the GI50 on ABL T315I BAF3 cells and at ABL P210WT BAF3 cells was 100 to 1000 nM throughout. In addition, the “ABL_T315I_0P (IC50)” value in test [1] was “D (<0.01 μM)”.
Turning to `CN(C)C(=O)c1cc(-c2cnc3[nH]cc(-c4cc(F)ccc4F)c3c2Cl)cnc1N` [2-Amino-5-[4-chloro-3-(2,5-difluoro-phenyl)-1H-pyrrolo[2,3-b]pyridin-5-yl]-N,N-dimethyl-nicotinamide], the figures for the GI50 at ABL T315I BAF3 cells and at ABL P210WT BAF3 cells were 100 to 1000 nM and 10 to 100 nM, respectively. Further, the “ABL_T315I_0P (IC50)” value in test [1] is recorded as “D (<0.01 μM)”.
For `CCN(C)C(=O)c1cc(-c2cnc3[nH]cc(-c4cc(F)ccc4F)c3c2Cl)cnc1N` [2-Amino-5-[4-chloro-3-(2,5-difluoro-phenyl)-1H-pyrrolo[2,3-b]pyridin-5-yl]-N-ethyl-N-methyl-nicotinamide] the same measures were 100 to 1000 nM, 100 to 1000 nM and “D (<0.01 μM)”.
On to `CN(C)C(=O)c1cc(-c2cnc3[nH]cc(-c4cc(F)ccc4Cl)c3c2Cl)cnc1N` [2-Amino-5-[4-chloro-3-(2-chloro-5-fluoro-phenyl)-1H-pyrrolo[2,3-b]pyridin-5-yl]-N,N-dimethyl-nicotinamide], for which the GI50 on ABL T315I BAF3 cells and at ABL P210WT BAF3 cells was 100 to 1000 nM throughout. Also, the “ABL_T315I_0P (IC50)” value in test [1] was “D (<0.01 μM)”.
In the case of `CN(C)C(=O)c1cc(-c2cnc3[nH]cc(-c4ccccc4F)c3c2Cl)cnc1N` [2-Amino-5-[4-chloro-3-(2-fluoro-phenyl)-1H-pyrrolo[2,3-b]pyridin-5-yl]-N,N-dimethyl-nicotinamide], the GI50 at ABL T315I BAF3 cells and at ABL P210WT BAF3 cells was 100 to 1000 nM each time. Further, the “ABL_T315I_0P (IC50)” value in test [1] was “D (<0.01 μM)”.
On to `COc1ccc(C(F)(F)F)cc1-c1c[nH]c2ncc(-c3cnc(N)c(C(=O)N(C)C)c3)c(Cl)c12` [2-Amino-5-[4-chloro-3-(2-methoxy-5-trifluoromethyl-phenyl)-1H-pyrrolo[2,3-b]pyridin-5-yl]-N,N-dimethyl-nicotinamide], for which the GI50 at ABL T315I BAF3 cells and on ABL P210WT BAF3 cells was 100 to 1000 nM throughout. Besides, in test [1], the “ABL_T315I_0P (IC50)” value is given as “D (<0.01 μM)”.
`COc1ccccc1-c1c[nH]c2ncc(-c3ccc(N)c(C(=O)N(C)C)c3)c(Cl)c12` [2-Amino-5-[4-chloro-3-(2-methoxy-phenyl)-1H-pyrrolo[2,3-b]pyridin-5-yl]-N,N-dimethyl-benzamide]: the GI50 on ABL T315I BAF3 cells and on ABL P210WT BAF3 cells was below 10 nM throughout. For the same compound, in test [1], the “ABL_T315I_0P (IC50)” value is reported as “D (<0.01 μM)”.
Turning to `COc1ccccc1-c1c[nH]c2ncc(-c3cnc(N)c(C(=O)N(C)C)c3)c(Cl)c12` [2-Amino-5-[4-chloro-3-(2-methoxy-phenyl)-1H-pyrrolo[2,3-b]pyridin-5-yl]-N,N-dimethyl-nicotinamide], the GI50 on ABL T315I BAF3 cells and at ABL P210WT BAF3 cells was below 10 nM each time. Besides, the “ABL_T315I_0P (IC50)” value in test [1] is given as “D (<0.01 μM)”.
Turning to `COc1ncccc1-c1c[nH]c2ncc(-c3cnc(N)c(C(=O)N(C)C)c3)c(Cl)c12` [2-Amino-5-[4-chloro-3-(2-methoxy-pyridin-3-yl)-1H-pyrrolo[2,3-b]pyridin-5-yl]-N,N-dimethyl-nicotinamide], the GI50 at ABL T315I BAF3 cells and at ABL P210WT BAF3 cells was 10 to 100 nM in each case. Also, in test [1], the “ABL_T315I_0P (IC50)” value is on record as “D (<0.01 μM)”.
Turning to `CN(C)C(=O)c1cc(-c2cnc3[nH]cc(-c4ccc5c(c4)CC(=O)N5)c3c2Cl)cnc1N` [2-Amino-5-[4-chloro-3-(2-oxo-2,3-dihydro-1H-indol-5-yl)-1H-pyrrolo[2,3-b]pyridin-5-yl]-N,N-dimethyl-nicotinamide], the values for the GI50 on ABL T315I BAF3 cells and at ABL P210WT BAF3 cells were above 1000 nM and 100 to 1000 nM, respectively. Also, the “ABL_T315I_0P (IC50)” value in test [1] is “D (<0.01 μM)”.
The corresponding values for `CN(C)C(=O)c1cc(-c2cnc3[nH]cc(-c4cccc(F)c4)c3c2Cl)cnc1N` [2-Amino-5-[4-chloro-3-(3-fluoro-phenyl)-1H-pyrrolo[2,3-b]pyridin-5-yl]-N,N-dimethyl-nicotinamide] are 100 to 1000 nM, 100 to 1000 nM and “D (<0.01 μM)”.
Take `CCN(C)C(=O)c1cc(-c2cnc3[nH]cc(-c4cccc(F)c4)c3c2Cl)cnc1N` [2-Amino-5-[4-chloro-3-(3-fluoro-phenyl)-1H-pyrrolo[2,3-b]pyridin-5-yl]-N-ethyl-N-methyl-nicotinamide]: the GI50 on ABL T315I BAF3 cells and at ABL P210WT BAF3 cells was 10 to 100 nM each time. Also, in test [1], the “ABL_T315I_0P (IC50)” value is on record as “D (<0.01 μM)”.
Regarding `COc1cc(F)c(F)cc1-c1c[nH]c2ncc(-c3cnc(N)c(C(=O)N(C)C)c3)c(Cl)c12` [2-Amino-5-[4-chloro-3-(4,5-difluoro-2-methoxy-phenyl)-1H-pyrrolo[2,3-b]pyridin-5-yl]-N,N-dimethyl-nicotinamide], the GI50 on ABL T315I BAF3 cells and on ABL P210WT BAF3 cells was 10 to 100 nM throughout. Also, the “ABL_T315I_0P (IC50)” value in test [1] is “D (<0.01 μM)”.
As to `COc1cc(Cl)ccc1-c1c[nH]c2ncc(-c3cnc(N)c(C(=O)N(C)C)c3)c(Cl)c12` [2-Amino-5-[4-chloro-3-(4-chloro-2-methoxy-phenyl)-1H-pyrrolo[2,3-b]pyridin-5-yl]-N,N-dimethyl-nicotinamide], the GI50 at ABL T315I BAF3 cells and at ABL P210WT BAF3 cells was 10 to 100 nM each time. For the same compound, in test [1], the “ABL_T315I_0P (IC50)” value is given as “D (<0.01 μM)”.
